# Assay results reported in article PMC8501045, “Addressing MRSA infection and antibacterial resistance with peptoid polymers” (Nature Communications, 2021).
# What was measured:
# [1] = test system: E. faecalis 0609; test: MIC assay, clinical isolate; format: cell-based; conditions: Enterococcus faecalis, 0609
# Protocol: (§1) MRSA (S. aureus Mu50, S. aureus Newman, S. aureus USA400, S. aureus USA300 LAC, S. aureus USA300) were obtained from Shanghai Institute of Materia Medica, Chinese Academy of Sciences. All clinically isolated Gram-positive bacteria used in this study were isolated from patients with various infections, different ages and sexes in the Shanghai Ruijin Rehabilitation Hospital. All strains were cultured in Luria-Bertani (LB) medium at 37 °C before use.
# (§2) Bacteria were cultured in LB medium at 37 °C for 10 h, and then the bacterial suspension was diluted in Mueller–Hinton (MH) medium to a cell density of 2 × 10^5 colony forming units (CFU)/mL as the working suspension. The poly(Naeg)20 was serially diluted by MH medium in a 96-well plate, and an equal volume of bacterial suspension was added into each well. The final concentration of the poly(Naeg)20 was ranging from 200 to 1.56 μg/mL, and the plates were incubated at 37 °C for 9 h. Wells with inoculum and no polymer were used as the positive control; wells with only MH medium were used as the blank. The optical density (OD) in each well was measured on a Molecular Devices SpectraMax M2 precision microplate reader. The percentage of bacteria growth was calculated from1 %cellgrowth=A600polymer-A600blank/A600control-A600blank×100
# (§3) The test was independently repeated at least three times.
# [2] = test system: E. faecalis 2305; test: MIC assay, clinical isolate; format: cell-based; conditions: Enterococcus faecalis, 2305
# Protocol: as §1, §2, §3
# [3] = test system: E. faecium 0502; test: MIC assay, clinical isolate; format: cell-based; conditions: Enterococcus faecium, 0502
# Protocol: as §1, §2, §3
# [4] = test system: E. faecium 0609; test: MIC assay, clinical isolate; format: cell-based; conditions: Enterococcus faecium, 0609
# Protocol: as §1, §2, §3
# [5] = test system: E. faecium 0610; test: MIC assay, clinical isolate; format: cell-based; conditions: Enterococcus faecium, 0610
# Protocol: as §1, §2, §3
# [6] = test system: E. faecium 1205; test: MIC assay, clinical isolate; format: cell-based; conditions: Enterococcus faecium, 1205
# Protocol: as §1, §2, §3
# [7] = test system: E. faecium 2504; test: MIC assay, clinical isolate; format: cell-based; conditions: Enterococcus faecium, 2504
# Protocol: as §1, §2, §3
# [8] = test system: S. agalactiae 0613; test: MIC assay, clinical isolate; format: cell-based; conditions: Streptococcus agalactiae, 0613
# Protocol: as §1, §2, §3
# [9] = test system: S. aureus 2202; test: MIC assay, clinical isolate; format: cell-based; conditions: Staphylococcus aureus, 2202
# Protocol: as §1, §2, §3
# [10] = test system: S. aureus 2802; test: MIC assay, clinical isolate; format: cell-based; conditions: Staphylococcus aureus, 2802
# Protocol: as §1, §2, §3
# [11] = test system: S. aureus 2902; test: MIC assay, clinical isolate; format: cell-based; conditions: Staphylococcus aureus, 2902
# Protocol: as §1, §2, §3
# [12] = test system: S. aureus 2904; test: MIC assay, clinical isolate; format: cell-based; conditions: Staphylococcus aureus, 2904
# Protocol: as §1, §2, §3
# [13] = test system: S. epidermidis 0501; test: MIC assay, clinical isolate; format: cell-based; conditions: Staphylococcus epidermidis, 0501
# Protocol: as §1, §2, §3
# [14] = test system: S. epidermidis 9397; test: MIC assay, clinical isolate; format: cell-based; conditions: Staphylococcus epidermidis, 9397
# Protocol: as §1, §2, §3
# [15] = test system: S. haemolyticus 0202; test: MIC assay, clinical isolate; format: cell-based; conditions: Staphylococcus haemolyticus, 0202
# Protocol: as §1, §2, §3
# [16] = test system: S. haemolyticus 1107; test: MIC assay, clinical isolate; format: cell-based; conditions: Staphylococcus haemolyticus, 1107
# Protocol: as §1, §2, §3
# [17] = test system: S. haemolyticus 1303; test: MIC assay, clinical isolate; format: cell-based; conditions: Staphylococcus haemolyticus, 1303
# Protocol: as §1, §2, §3
# [18] = test system: S. aureus USA300 LAC; test: Mouse peritonitis model, CFU in organs, blood and IP fluid, MRSA; format: in vivo; conditions: Figure 6d
# Protocol: This infection model was conducted according to the previously reported method with slight modification. Female ICR mice (21–24 g) were used for MRSA-infected peritonitis model. Mice were infected by intraperitoneal administration of 0.2 mL of S. aureus USA300 LAC in saline (7.5 × 10^8 CFU/mL) supplemented with 5% mucin. […] Once the infected mice died, peritoneal lavage was performed by injecting 3.0 mL of saline into the peritoneal cavity and massaging the abdomen. Subsequently, the abdomen was opened and peritoneal fluid was recovered from the abdominal cavity for analysis. Blood samples were collected through cardiac puncture for analysis of CFU/mL. Then, different organs including the heart, liver, spleen, lung, and kidney were removed and homogenized in 0.1% TX-100 solution. The homogenate was serially diluted for plating on LB agar. After incubation at 37 °C for 14 h, the number of colonies on the plate was counted to calculate the bacteria burden. Surviving mice were euthanized at 48 h after infection. The blood, peritoneal fluid, and organs were collected for the determination of bacterial colonies. […] For the pretreatment group, mice were sacrificed and tissues were harvested to determine the CFU at 1 h post infection.
smiles,measurement,setting,value
CN[C@H](CC(C)C)C(=O)N[C@H]1C(=O)N[C@@H](CC(N)=O)C(=O)N[C@H]2C(=O)N[C@H]3C(=O)N[C@H](C(=O)N[C@H](C(=O)O)c4cc(O)cc(O)c4-c4cc3ccc4O)[C@H](O)c3ccc(c(Cl)c3)Oc3cc2cc(c3O[C@@H]2O[C@H](CO)[C@@H](O)[C@H](O)[C@H]2O[C@H]2C[C@](C)(N)[C@H](O)[C@H](C)O2)Oc2ccc(cc2Cl)[C@H]1O [Vancomycin],MIC,[1],0.39 µg/mL
same,MIC,[2],0.78 µg/mL
same,MIC,[3],> 200 µg/mL
same,MIC,[4],50 µg/mL
same,MIC,[5],0.78 µg/mL
same,MIC,[6],0.39 µg/mL
same,MIC,[7],0.78 µg/mL
same,MIC,[8],0.78 µg/mL
same,MIC,[9],0.78 µg/mL
same,MIC,[10],0.39 µg/mL
same,MIC,[11],0.39 µg/mL
same,MIC,[12],0.39 µg/mL
same,MIC,[13],0.78 µg/mL
same,MIC,[14],0.78 µg/mL
same,MIC,[15],1.56 µg/mL
same,MIC,[16],0.78 µg/mL
same,MIC,[17],0.78 µg/mL
same,Log10(CFU/mL IP fluid),[18]; individual mouse 1 of 6,3.724 Log10(CFU/mL)
same,Log10(CFU/mL IP fluid),[18]; individual mouse 2 of 6,3.912 Log10(CFU/mL)
same,Log10(CFU/mL IP fluid),[18]; individual mouse 3 of 6,2.845 Log10(CFU/mL)
same,Log10(CFU/mL IP fluid),[18]; individual mouse 4 of 6,3.255 Log10(CFU/mL)
same,Log10(CFU/mL IP fluid),[18]; individual mouse 5 of 6,3.595 Log10(CFU/mL)
same,Log10(CFU/mL IP fluid),[18]; individual mouse 6 of 6,1.824 Log10(CFU/mL)
same,Log10(CFU/mL Blood),[18]; individual mouse 1 of 6,1.824 Log10(CFU/mL)
same,Log10(CFU/mL Blood),[18]; individual mouse 2 of 6,3.213 Log10(CFU/mL)
same,Log10(CFU/mL Blood),[18]; individual mouse 3 of 6,3.885 Log10(CFU/mL)
same,Log10(CFU/mL Blood),[18]; individual mouse 4 of 6,1.523 Log10(CFU/mL)
same,Log10(CFU/mL Blood),[18]; individual mouse 5 of 6,2.222 Log10(CFU/mL)
same,Log10(CFU/mL Blood),[18]; individual mouse 6 of 6,0 Log10(CFU/mL)
same,Log10(CFU/g Heart),[18]; individual mouse 1 of 6,0 Log10(CFU/g)
same,Log10(CFU/g Heart),[18]; individual mouse 2 of 6,2.523 Log10(CFU/g)
same,Log10(CFU/g Heart),[18]; individual mouse 3 of 6,2.824 Log10(CFU/g)
same,Log10(CFU/g Heart),[18]; individual mouse 4 of 6,2.824 Log10(CFU/g)
same,Log10(CFU/g Heart),[18]; individual mouse 5 of 6,3 Log10(CFU/g)
same,Log10(CFU/g Heart),[18]; individual mouse 6 of 6,0 Log10(CFU/g)
same,Log10(CFU/g Kidney),[18]; individual mouse 1 of 6,3.222 Log10(CFU/g)
same,Log10(CFU/g Kidney),[18]; individual mouse 2 of 6,4.951 Log10(CFU/g)
same,Log10(CFU/g Kidney),[18]; individual mouse 3 of 6,4.845 Log10(CFU/g)
same,Log10(CFU/g Kidney),[18]; individual mouse 4 of 6,2.824 Log10(CFU/g)
same,Log10(CFU/g Kidney),[18]; individual mouse 5 of 6,2.523 Log10(CFU/g)
same,Log10(CFU/g Kidney),[18]; individual mouse 6 of 6,4.247 Log10(CFU/g)
same,Log10(CFU/g Liver),[18]; individual mouse 1 of 6,3.125 Log10(CFU/g)
same,Log10(CFU/g Liver),[18]; individual mouse 2 of 6,4.501 Log10(CFU/g)
same,Log10(CFU/g Liver),[18]; individual mouse 3 of 6,3.477 Log10(CFU/g)
same,Log10(CFU/g Liver),[18]; individual mouse 4 of 6,4.398 Log10(CFU/g)
same,Log10(CFU/g Liver),[18]; individual mouse 5 of 6,3.699 Log10(CFU/g)
same,Log10(CFU/g Liver),[18]; individual mouse 6 of 6,3.699 Log10(CFU/g)
same,Log10(CFU/g Lung),[18]; individual mouse 2 of 6,4.23 Log10(CFU/g)
same,Log10(CFU/g Lung),[18]; individual mouse 3 of 6,3.125 Log10(CFU/g)
same,Log10(CFU/g Lung),[18]; individual mouse 5 of 6,3 Log10(CFU/g)
same,Log10(CFU/g Lung),[18]; individual mouse 6 of 6,3 Log10(CFU/g)
same,Log10(CFU/g Spleen),[18]; individual mouse 1 of 6,3.426 Log10(CFU/g)
same,Log10(CFU/g Spleen),[18]; individual mouse 2 of 6,4.689 Log10(CFU/g)
same,Log10(CFU/g Spleen),[18]; individual mouse 3 of 6,3.885 Log10(CFU/g)
same,Log10(CFU/g Spleen),[18]; individual mouse 4 of 6,4.404 Log10(CFU/g)
same,Log10(CFU/g Spleen),[18]; individual mouse 5 of 6,4.222 Log10(CFU/g)
same,Log10(CFU/g Spleen),[18]; individual mouse 6 of 6,4.204 Log10(CFU/g)
